Our source for the inhibition and IC50 values is ChEMBL document CHEMBL4011659, “Combining Elements from Two Antagonists of Formyl Peptide Receptor 2 Generates More Potent Peptidomimetic Antagonists” (J Med Chem, 2017).

For assay [1], the target named is T1, fMet-Leu-Phe receptor (Homo sapiens) (UniProt P21462).
T1 sequence (whole entry): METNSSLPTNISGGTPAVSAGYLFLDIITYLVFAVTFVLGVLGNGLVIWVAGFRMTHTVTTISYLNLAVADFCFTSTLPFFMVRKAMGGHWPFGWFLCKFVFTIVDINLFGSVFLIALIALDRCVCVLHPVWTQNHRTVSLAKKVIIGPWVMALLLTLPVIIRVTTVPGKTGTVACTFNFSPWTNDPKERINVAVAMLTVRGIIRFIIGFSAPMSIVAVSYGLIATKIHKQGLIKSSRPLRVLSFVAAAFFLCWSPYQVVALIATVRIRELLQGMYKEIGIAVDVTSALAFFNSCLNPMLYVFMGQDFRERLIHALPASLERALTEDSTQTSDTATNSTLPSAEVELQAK
Put plainly: Antagonist activity at FPR1 in human peripheral blood polymorphonuclear neutrophils assessed as inhibition of fMLF-induced ROS production at <500 nM preincubated for 5 mins followed fMLF stimulation by isoluminol/HRP-based chemiluminescence assay.

Assay [2] concerns the target T2, N-formyl peptide receptor 2 (Homo sapiens, UniProt P25090).
T2 sequence (P25090 whole entry): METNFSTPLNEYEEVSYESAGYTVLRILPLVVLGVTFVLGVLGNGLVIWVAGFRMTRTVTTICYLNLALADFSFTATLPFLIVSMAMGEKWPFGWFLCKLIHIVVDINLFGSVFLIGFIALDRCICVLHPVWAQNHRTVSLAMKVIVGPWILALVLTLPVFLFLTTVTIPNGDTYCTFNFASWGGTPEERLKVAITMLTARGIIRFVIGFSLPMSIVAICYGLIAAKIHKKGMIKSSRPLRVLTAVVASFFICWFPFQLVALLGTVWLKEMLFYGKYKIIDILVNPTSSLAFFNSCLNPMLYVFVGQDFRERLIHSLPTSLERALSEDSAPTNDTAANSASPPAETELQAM
Put plainly: Antagonist activity at FPR2 in human peripheral blood polymorphonuclear neutrophils assessed as inhibition of WKYMVM-peptide induced ROS production preincubated for 5 mins followed WKYMVM-peptide stimulation by isoluminol/HRP-based chemiluminescence assay.

Assay [3] addresses T2, N-formyl peptide receptor 2. Put plainly: Antagonist activity at FPR2 in human peripheral blood polymorphonuclear neutrophils assessed as inhibition of WKYMVM-peptide induced ROS production preincubated for 5 mins followed WKYMVM-peptide stimulation measured up to 20 mins by isoluminol-based chemiluminescence assay.
In assay [4] the target is T3, N-formyl peptide receptor 2 (Homo sapiens) (UniProt P25090).
T3 sequence (whole entry): T2 sequence (P25090 whole entry)
Put plainly: Antagonist activity at FPR2 in human peripheral blood polymorphonuclear neutrophils assessed as inhibition of WKYMVM-peptide induced ROS production at <500 nM preincubated for 5 mins followed WKYMVM-peptide stimulation by isoluminol/HRP-based chemiluminescence assay.

Assay [5] concerns the target T1, fMet-Leu-Phe receptor (Homo sapiens). Put plainly: Antagonist activity at FPR1 in human peripheral blood polymorphonuclear neutrophils assessed as inhibition of fMLF-induced ROS production at >= 1 uM preincubated for 5 mins followed by fMLF stimulation by isoluminol/HRP-based chemiluminescence assay.
A further assay concerns Neutrophil. Put plainly: Inhibition of PMA-induced superoxide production in human peripheral blood polymorphonuclear neutrophils at 500 nM preincubated for 5 mins followed PMA stimulation by isoluminol/HRP-based chemiluminescence assay. The assay is classed as functional, cell-based.

Activity calls are given as the source filed them. The rule behind the calls is not given here. Peptide text beside a SMILES is read from it. * marks the point of attachment. RhodamineB = CCN(CC)c1ccc2c(-c3ccccc3C(=O)*)c3ccc(=[N+](CC)CC)cc-3oc2c1

What is called IC50 is the concentration needed to halve the response being measured.

`CCN(CC)c1ccc2c(-c3ccccc3C(=O)N[C@@H](CCCCN)C(=O)N(CCC(=O)N[C@@H](CCCCN)C(=O)N(CCC(=O)N[C@@H](CCCCN)C(=O)N(CCC(N)=O)Cc3ccccc3)Cc3ccccc3)Cc3ccccc3)c3ccc(=[N+](CC)CC)cc-3oc2c1`: the inhibition result in assay [1] was “inactive”. The IC50 in assay [2] amounted to 28 nM.

On to `CCCCCCCCCCCCCCCC(=O)N[C@@H](CCCCN)C(=O)N(CCC(=O)N[C@@H](CCCCN)C(=O)N(CCC(=O)N[C@@H](CCCCN)C(=O)N(CCC(=O)N[C@@H](CCCCN)C(=O)N(CCC(=O)N[C@@H](CCCCN)C(=O)N(CCC(=O)N[C@@H](CCCCN)C(=O)N(CCC(N)=O)[C@@H](C)c1ccccc1)[C@@H](C)c1ccccc1)[C@@H](C)c1ccccc1)[C@@H](C)c1ccccc1)[C@@H](C)c1ccccc1)[C@@H](C)c1ccccc1`, for which, in assay [1], the inhibition result was “inactive”. Also, the half-maximal inhibitory concentration (IC50) in assay [3] stood at 41 nM.

Consider `CCN(CC)c1ccc2c(-c3ccccc3C(=O)N[C@@H](CCCCN)C(=O)N(CCC(=O)N[C@@H](CCCCN)C(=O)N(CCC(=O)N[C@@H](CCCCN)C(=O)N(CCC(=O)N[C@@H](CCCCN)C(=O)N(CCC(=O)N[C@@H](CCCCN)C(=O)N(CCC(=O)N[C@@H](CCCCN)C(=O)N(CCC(=O)N[C@@H](CCCCN)C(=O)N(CCC(=O)N[C@@H](CCCCN)C(=O)N(CCC(N)=O)Cc3ccccc3)Cc3ccccc3)Cc3ccccc3)Cc3ccccc3)Cc3ccccc3)Cc3ccccc3)Cc3ccccc3)Cc3ccccc3)c3ccc(=[N+](CC)CC)cc-3oc2c1`, for which the inhibition result in assay [1] was “inactive”. In addition, the IC50 in assay [2] was 41 nM.

Regarding `CCN(CC)c1ccc2c(-c3ccccc3C(=O)N[C@@H](CCCCN)C(=O)N[C@@H](Cc3ccccc3)C(=O)N[C@@H](CCCCN)C(=O)N[C@@H](Cc3ccccc3)C(=O)N[C@@H](CCCCN)C(=O)N[C@@H](Cc3ccccc3)C(=O)N[C@@H](CCCCN)C(=O)N[C@@H](Cc3ccccc3)C(=O)N[C@@H](CCCCN)C(=O)N[C@@H](Cc3ccccc3)C(=O)N[C@@H](CCCCN)C(=O)N[C@@H](Cc3ccccc3)C(N)=O)c3ccc(=[N+](CC)CC)cc-3oc2c1` (RhodamineB-KFKFKFKFKFKF-NH2), the inhibition entry in assay [1] and in assay [4] was “inactive” each time.

Regarding `CCN(CC)c1ccc2c(-c3ccccc3C(=O)N[C@@H](CCCCN)C(=O)N(CCC(=O)N[C@@H](CCCCN)C(=O)N(CCC(=O)N[C@@H](CCCCN)C(=O)N(CCC(=O)N[C@@H](CCCCN)C(=O)N(CCC(N)=O)Cc3ccccc3)Cc3ccccc3)Cc3ccccc3)Cc3ccccc3)c3ccc(=[N+](CC)CC)cc-3oc2c1`, the inhibition entry in assay [1] is “inactive”. Further, in assay [2], the IC50 was determined as 13 nM.

With `CCCCCCCCCCCCCCCC(=O)N[C@@H](CCC(N)=O)C(=O)N[C@@H](CCCNC(=N)N)C(=O)N[C@@H](CC(C)C)C(=O)N[C@@H](Cc1ccccc1)C(=O)N[C@@H](CCC(N)=O)C(=O)NC(C(=O)N[C@@H](CCCCN)C(=O)NCC(=O)N[C@@H](CCCNC(=N)N)C(=O)N[C@@H](CCCNC(=N)N)C(N)=O)C(C)C` (single isomer, unassigned), in assay [5], the inhibition result is “Active”. Moreover, the half-inhibitory concentration (IC50) in assay [2] came out at 900 nM.

`CCN(CC)c1ccc2c(-c3ccccc3C(=O)N[C@@H](CCCCN)C(=O)N(CCC(=O)N[C@@H](CCCCN)C(=O)N(CCC(N)=O)Cc3ccccc3)Cc3ccccc3)c3ccc(=[N+](CC)CC)cc-3oc2c1`: the inhibition result in assay [1] is “inactive”. Moreover, the IC50 in assay [2] came to 273 nM.

Consider `CCN(CC)c1ccc2c(-c3ccccc3C(=O)N[C@@H](CCCCN)C(=O)N(CCC(=O)N[C@@H](CCCCN)C(=O)N(CCC(=O)N[C@@H](CCCCN)C(=O)N(CCC(=O)N[C@@H](CCCCN)C(=O)N(CCC(=O)N[C@@H](CCCCN)C(=O)N(CCC(N)=O)Cc3ccccc3)Cc3ccccc3)Cc3ccccc3)Cc3ccccc3)Cc3ccccc3)c3ccc(=[N+](CC)CC)cc-3oc2c1`, for which, in assay [1], the inhibition result was “inactive”. Moreover, the IC50 in assay [2] amounted to 18 nM.

Take `CCN(CC)c1ccc2c(-c3ccccc3C(=O)N[C@@H](CCCCN)C(=O)N(CCC(=O)N[C@@H](CCCCN)C(=O)N(CCC(=O)N[C@@H](CCCCN)C(=O)N(CCC(=O)N[C@@H](CCCCN)C(=O)N(CCC(=O)N[C@@H](CCCCN)C(=O)N(CCC(=O)N[C@@H](CCCCN)C(=O)N(CCC(N)=O)Cc3cc(F)c(F)c(F)c3)Cc3cc(F)c(F)c(F)c3)Cc3cc(F)c(F)c(F)c3)Cc3cc(F)c(F)c(F)c3)Cc3cc(F)c(F)c(F)c3)Cc3cc(F)c(F)c(F)c3)c3ccc(=[N+](CC)CC)cc-3oc2c1`: the inhibition entry in assay [1] was “inactive”. In addition, in assay [2], the IC50 was found to be 53 nM.

In the case of `CCN(CC)c1ccc2c(-c3ccccc3C(=O)N[C@@H](CCCCN)C(=O)N(CCC(=O)N[C@@H](CCCCN)C(=O)N(CCC(=O)N[C@@H](CCCCN)C(=O)N(CCC(=O)N[C@@H](CCCCN)C(=O)N(CCC(=O)N[C@@H](CCCCN)C(=O)N(CCC(=O)N[C@@H](CCCCN)C(=O)N(CCC(N)=O)[C@H](C)c3ccccc3)[C@H](C)c3ccccc3)[C@H](C)c3ccccc3)[C@H](C)c3ccccc3)[C@H](C)c3ccccc3)[C@H](C)c3ccccc3)c3ccc(=[N+](CC)CC)cc-3oc2c1`, the inhibition entry in assay [1] was “inactive”. The IC50 in assay [2] was found to be 44 nM.

With `CCN(CC)c1ccc2c(-c3ccccc3C(=O)N[C@@H](CCCCN)C(=O)N(CCC(=O)N[C@@H](CCCCN)C(=O)N(CCC(=O)N[C@@H](CCCCN)C(=O)N(CCC(=O)N[C@@H](CCCCN)C(=O)N(CCC(=O)N[C@@H](CCCCN)C(=O)N(CCC(=O)N[C@@H](CCCCN)C(=O)N(CCC(N)=O)Cc3ccc(C)cc3)Cc3ccc(C)cc3)Cc3ccc(C)cc3)Cc3ccc(C)cc3)Cc3ccc(C)cc3)Cc3ccc(C)cc3)c3ccc(=[N+](CC)CC)cc-3oc2c1`, the inhibition entry in assay [1] was “inactive”. In addition, in assay [2], the IC50 worked out at 24 nM.

Regarding `CCN(CC)c1ccc2c(-c3ccccc3C(=O)N[C@@H](CCCCN)C(=O)N(CCC(=O)N[C@@H](CCCCN)C(=O)N(CCC(=O)N[C@@H](CCCCN)C(=O)N(CCC(=O)N[C@@H](CCCCN)C(=O)N(CCC(=O)N[C@@H](CCCCN)C(=O)N(CCC(=O)N[C@@H](CCCCN)C(=O)N(CCC(N)=O)Cc3ccc(F)cc3)Cc3ccc(F)cc3)Cc3ccc(F)cc3)Cc3ccc(F)cc3)Cc3ccc(F)cc3)Cc3ccc(F)cc3)c3ccc(=[N+](CC)CC)cc-3oc2c1`, the inhibition result in assay [1] was “inactive”. Also, the IC50 in assay [2] stood at 10 nM. For the same compound, the inhibition entry with Neutrophil is “Active”.

With `CCN(CC)c1ccc2c(-c3ccccc3C(=O)N[C@@H](CCCCN)C(=O)N(CCC(=O)N[C@@H](CCCCN)C(=O)N(CCC(=O)N[C@@H](CCCCN)C(=O)N(CCC(=O)N[C@@H](CCCCN)C(=O)N(CCC(=O)N[C@@H](CCCCN)C(=O)N(CCC(=O)N[C@@H](CCCCN)C(=O)N(CCC(N)=O)[C@@H](C)c3ccccc3)[C@@H](C)c3ccccc3)[C@@H](C)c3ccccc3)[C@@H](C)c3ccccc3)[C@@H](C)c3ccccc3)[C@@H](C)c3ccccc3)c3ccc(=[N+](CC)CC)cc-3oc2c1`, the inhibition entry in assay [1] was “inactive”. Also, the IC50 in assay [2] was found to be 34 nM.

Take `CCN(CC)c1ccc2c(-c3ccccc3C(=O)N[C@H](CCC(N)=O)C(=O)N[C@H](CCCNC(=N)N)C(=O)N[C@H](CC(C)C)C(=O)N[C@H](Cc3ccccc3)C(=O)N[C@H](CCC(N)=O)C(=O)N[C@@H](C(=O)N[C@H](CCCCN)C(=O)NCC(=O)N[C@H](CCCNC(=N)N)C(=O)N[C@H](CCCNC(=N)N)C(N)=O)C(C)C)c3ccc(=[N+](CC)CC)cc-3oc2c1`: the inhibition result in assay [1] and in assay [4] was “inactive” throughout.

With `CCN(CC)c1ccc2c(-c3ccccc3C(=O)N[C@@H](CCCCN)C(=O)N(CCC(=O)N[C@@H](CCCCN)C(=O)N(CCC(=O)N[C@@H](CCCCN)C(=O)N(CCC(=O)N[C@@H](CCCCN)C(=O)N(CCC(=O)N[C@@H](CCCCN)C(=O)N(CCC(=O)N[C@@H](CCCCN)C(=O)N(CCC(=O)N[C@@H](CCCCN)C(=O)N(CCC(N)=O)Cc3ccccc3)Cc3ccccc3)Cc3ccccc3)Cc3ccccc3)Cc3ccccc3)Cc3ccccc3)Cc3ccccc3)c3ccc(=[N+](CC)CC)cc-3oc2c1`, in assay [1], the inhibition result is “inactive”. Moreover, the IC50 in assay [2] worked out at 35 nM.

On to `CCN(CC)c1ccc2c(-c3ccccc3C(=O)N[C@@H](CCCCN)C(=O)N(CCC(N)=O)Cc3ccccc3)c3ccc(=[N+](CC)CC)cc-3oc2c1`, for which the inhibition result in assay [1] is “inactive”. Further, the IC50 in assay [2] was found to be 759 nM.

For the compound `CCCCCCCCCCCCCCCC(=O)N[C@H](CCC(N)=O)C(=O)N[C@H](CCCNC(=N)N)C(=O)N[C@H](CC(C)C)C(=O)N[C@H](Cc1ccccc1)C(=O)N[C@H](CCC(N)=O)C(=O)N[C@@H](C(=O)N[C@H](CCCCN)C(=O)NCC(=O)N[C@H](CCCNC(=N)N)C(=O)N[C@H](CCCNC(=N)N)C(N)=O)C(C)C`, the inhibition result in assay [5] was “Active”. For the same compound, the concentration for half-maximal inhibition (IC50) in assay [2] came out at 1120 nM.
